From US20120122727A1, “IN VITRO METHOD FOR PREDICTING WHETHER A COMPOUND IS GENOTOXIC IN VIVO” (priority 2009, published 2012)

Test system: primary mouse hepatocytes
Assay: Gene expression (Affymetrix Mouse Genome 430 2.0) in primary mouse hepatocytes, true vs false GTX, 24 h and 48 h
Conditions: log2, corrected for vehicle control

Structure (SMILES): Nc1ccccc1C(=O)O [ANAC, o-Anthranilic acid]
- Gene expression data AF000969 (Cadps2) (24 h average): −0.12
- Gene expression data AF022072 (Grb10) (24 h average): 0.4544
- Gene expression data AF065917 (Lif) (24 h average): −0.2023
- Gene expression data AF204959 (Cyp3a25 /// LOC622249) (24 h average): −0.28
- Gene expression data AF297615 (Ggta1) (24 h average): 0.03103
- Gene expression data AI594683 (Dmn) (24 h average): −0.2163
- Gene expression data AI596632 (Ptprg /// LOC632664) (24 h average): 0.1214
- Gene expression data AI987929 (Ndrg1) (24 h average): 0.6977
- Gene expression data AK004419 (Fbxl17) (24 h average): −0.01793
- Gene expression data AK005731 (1700007K13Rik) (24 h average): −0.1733
- Gene expression data AK007766 (1810044A24Rik) (24 h average): −0.05167
- Gene expression data AK007854 (1810053B23Rik) (24 h average): −0.4283
- Gene expression data AK009736 (Gpr137b /// LOC664862 /// LOC673335) (24 h average): −0.0957
- Gene expression data AK010447 (Smyd3) (24 h average): −0.1211
- Gene expression data AK014608 (4632434l11Rik) (24 h average): −0.1768
- Gene expression data AK019979 (2610528E23Rik) (24 h average): 0.1139
- Gene expression data AV095209 (Mthfd1l) (24 h average): 0.3162
- Gene expression data AV141095 (1110033M05Rik) (24 h average): −0.1293
- Gene expression data AV173571 (1700106N22Rik) (24 h average): −0.1574
- Gene expression data AV219418 (Ldhb) (24 h average): −0.2907
- Gene expression data AV223474 (Zdhhc14) (24 h average): −0.07347
- Gene expression data AV298304 (Homez) (24 h average): −0.0861
- Gene expression data AV327248 (Zfp365 /// LOC674611) (24 h average): 0.0212
- Gene expression data AV377066 (9130221J18Rik) (24 h average): −0.2482
- Gene expression data AW240761 (Tbc1d5) (24 h average): 0.001667
- Gene expression data AW543460 (Pard3) (24 h average): 0.06037
- Gene expression data AW543723 (24 h average): 0.2943
- Gene expression data AW986246 (Maoa) (24 h average): 0.01683
- Gene expression data BB027848 (4732466D17Rik) (24 h average): −0.03697
- Gene expression data BB043558 (9230114K14Rik) (24 h average): −0.1292
- Gene expression data BB275142 (AW456874) (24 h average): 0.02823
- Gene expression data BB308836 (Ppm1l) (24 h average): −0.0317
- Gene expression data BB318221 (Zdhhc14) (24 h average): 0.0002333
- Gene expression data BB463610 (4632434l11Rik) (24 h average): −0.3672
- Gene expression data BB526605 (Mipol1) (24 h average): 0.3407
- Gene expression data BB770528 (Rai2) (24 h average): −0.08327
- Gene expression data BB821363 (Scfd2) (24 h average): −0.084
- Gene expression data BC004827 (Psat1) (24 h average): 0.3937
- Gene expression data BC008626 (Icam1) (24 h average): −0.2705
- Gene expression data BC010462 (BC010462) (24 h average): −0.4089
- Gene expression data BC012247 (Dcxr) (24 h average): −0.0311
- Gene expression data BC012260 (Psmf1) (24 h average): −0.1838
- Gene expression data BC015270 (Hist2h3c2) (24 h average): 0.1186
- Gene expression data BC016073 (Cdkal1) (24 h average): 0.0051
- Gene expression data BC016265 (Ube2e2) (24 h average): 0.01507
- Gene expression data BC019882 (Acaa1b) (24 h average): 1.0984
- Gene expression data BC025501 (Aaas) (24 h average): −0.2261
- Gene expression data BC025837 (Sbk1) (24 h average): −0.3033
- Gene expression data BC025915 (Cova1) (24 h average): −0.05383
- Gene expression data BC026422 (Tgm1) (24 h average): 0.0232
- Gene expression data BF719766 (Thyn1) (24 h average): −0.1153
- Gene expression data BG065754 (Ccng1) (24 h average): −0.08917
- Gene expression data BG066903 (Kif16b) (24 h average): 0.0241
- Gene expression data BG069873 (Gnb1l) (24 h average): −0.2107
- Gene expression data BG070887 (Gtdc1) (24 h average): −0.05163
- Gene expression data BG076151 (Ppm1d) (24 h average): −0.08637
- Gene expression data BG261907 (Large) (24 h average): 0.09293
- Gene expression data BI651416 (Cdc42bpg) (24 h average): 0.01387
- Gene expression data BI660702 (Ell3) (24 h average): −0.1539
- Gene expression data BM198879 (Ercc5) (24 h average): −0.2194
- Gene expression data BM230508 (A030007D23Rik) (24 h average): −0.1178
- Gene expression data NM_007987 (Fas) (24 h average): −0.1337
- Gene expression data NM_008522 (Ltf) (24 h average): 0.0771
- Gene expression data NM_008576 (Abcc1) (24 h average): 0.3586
- Gene expression data NM_011176 (St14) (24 h average): −0.1445
- Gene expression data NM_011316 (Saa4) (24 h average): −0.1988
- Gene expression data NM_012006 (Acot1) (24 h average): 1.862
- Gene expression data NM_013866 (Zfp385) (24 h average): −0.1953
- Gene expression data NM_018770 (Igsf4a) (24 h average): −0.08853
- Gene expression data NM_021451 (Pmaip1) (24 h average): 0.01303
- Gene expression data NM_025770 (Atg10) (24 h average): −0.01263
- Gene expression data NM_028803 (Gbe1) (24 h average): −0.0826
- Gene expression data NM_030697 (Ankrd47) (24 h average): −0.1623
- Gene expression data NM_053168 (Trim11) (24 h average): −0.201
- Gene expression data NM_134188 (Acot2) (24 h average): 0.8696
- Gene expression data Y15910 (Diap2) (24 h average): 0.06533
- Gene expression AA561726 average (48 h): 0.3194
- Gene expression AF000969 average (48 h): −0.5599
- Gene expression AF022072 average (48 h): 0.5563
- Gene expression AF033112 average (48 h): 0.1422
- Gene expression AF055573 average (48 h): −0.1687
- Gene expression AF069954 average (48 h): −0.3847
- Gene expression AF297615 average (48 h): 0.111
- Gene expression AF335325 average (48 h): −0.0865
- Gene expression AI594683 average (48 h): −0.5224
- Gene expression AI747296 average (48 h): −0.0394
- Gene expression AK005731 average (48 h): −0.6498
- Gene expression AK007854 average (48 h): −0.2242
- Gene expression AK010447 average (48 h): −0.1083
- Gene expression AK010738 average (48 h): −0.06687
- Gene expression AK014608 average (48 h): −0.455
- Gene expression AK017734 average (48 h): −0.5275
- Gene expression AK018383 average (48 h): −0.0203
- Gene expression AK019979 average (48 h): 0.04547
- Gene expression AV095209 average (48 h): 0.2956
- Gene expression AV141095 average (48 h): −0.0311
- Gene expression AV173869 average (48 h): −0.005067
- Gene expression AV216768 average (48 h): 0.4153
- Gene expression AV219418 average (48 h): 0.1539
- Gene expression AV221299 average (48 h): 0.1649
- Gene expression AV246296 average (48 h): −0.1054
- Gene expression AV251625 average (48 h): 0.0423
- Gene expression AV254764 average (48 h): −0.265
- Gene expression AV327248 average (48 h): 0.0856
- Gene expression BB009155 average (48 h): −0.4697
- Gene expression BB027848 average (48 h): −0.2609
- Gene expression BB043558 average (48 h): −0.188
- Gene expression BB046347 average (48 h): −0.1072
- Gene expression BB140436 average (48 h): −0.07237
- Gene expression BB204486 average (48 h): 0.3188
- Gene expression BB223872 average (48 h): −0.4287
- Gene expression BB246912 average (48 h): −0.1992
- Gene expression BB275142 average (48 h): −0.2874
- Gene expression BB458460 average (48 h): 0.007967
- Gene expression BB463610 average (48 h): −0.2186
- Gene expression BB730977 average (48 h): 0.7532
- Gene expression BB743970 average (48 h): 0.1551
- Gene expression BB770528 average (48 h): −0.001733
- Gene expression BB781615 average (48 h): −0.2937
- Gene expression BC003284 average (48 h): −0.2108
- Gene expression BC004827 average (48 h): 0.3756
- Gene expression BC005552 average (48 h): 0.3056
- Gene expression BC006713 average (48 h): −0.1305
- Gene expression BC010318 average (48 h): 0.1353
- Gene expression BC012247 average (48 h): −0.5319
- Gene expression BC012955 average (48 h): −0.2554
- Gene expression BC013893 average (48 h): −0.5709
- Gene expression BC017615 average (48 h): 0.06827
- Gene expression BC019379 average (48 h): 0.0072
- Gene expression BC019882 average (48 h): 0.1948
- Gene expression BC021352 average (48 h): 0.06563
- Gene expression BC022148 average (48 h): −0.1976
- Gene expression BC025169 average (48 h): −0.0788
- Gene expression BC026131 average (48 h): 0.0392
- Gene expression BC027026 average (48 h): −0.007933
- Gene expression BC027121 average (48 h): −0.1424
- Gene expression BC027185 average (48 h): −0.2381
- Gene expression BE956581 average (48 h): 0.04267
- Gene expression BF719766 average (48 h): 0.07637
- Gene expression BG065754 average (48 h): 0.0641
- Gene expression BG066491 average (48 h): −0.061
- Gene expression BG076151 average (48 h): −0.241
- Gene expression BG076333 average (48 h): 0.2383
- Gene expression BG797099 average (48 h): −0.02097
- Gene expression BG967046 average (48 h): −0.2562
- Gene expression BI651416 average (48 h): −0.1051
- Gene expression BI966443 average (48 h): 0.07723
- Gene expression BM198879 average (48 h): −0.1608
- Gene expression BM200015 average (48 h): 0.009533
- Gene expression BM230508 average (48 h): −0.471
- Gene expression BM936480 average (48 h): −0.04323
- Gene expression BQ174991 average (48 h): 0.4039
- Gene expression L21027 average (48 h): 0.3857
- Gene expression NM_007556 average (48 h): 0.5247
- Gene expression NM_007980 average (48 h): 0.1776
- Gene expression NM_007987 average (48 h): −0.005833
- Gene expression NM_008522 average (48 h): −0.06957
- Gene expression NM_008935 average (48 h): 0.3779
- Gene expression NM_009897 average (48 h): 0.09963
- Gene expression NM_011075 average (48 h): 0.3891
- Gene expression NM_011176 average (48 h): −0.4607
- Gene expression NM_011316 average (48 h): −0.4717
- Gene expression NM_012006 average (48 h): 1.5971
- Gene expression NM_013642 average (48 h): 0.3286
- Gene expression NM_013738 average (48 h): −0.3378
- Gene expression NM_013929 average (48 h): −0.006633
- Gene expression NM_018881 average (48 h): 0.08383
- Gene expression NM_019738 average (48 h): −0.6326
- Gene expression NM_030697 average (48 h): −0.6238
- Gene expression NM_053122 average (48 h): −0.04513
- Gene expression NM_134147 average (48 h): −0.2207
- Gene expression NM_134188 average (48 h): 0.2382
- Gene expression X62701 average (48 h): 0.7542
